# According to the supplement of paper PMC10307832:
# Key:
# Assay in all cases: relative viability (nuclei count vs DMSO), 5 days (fraction); higher = more cells survive
# [1] = compound: CC1=C(CC(=O)O)c2cc(F)ccc2/C1=C\c1ccc([S+](C)[O-])cc1 [Sulindac] + CC(=O)c1c(C)c2cnc(Nc3ccc(N4CCNCC4)cn3)nc2n(C2CCCC2)c1=O [Palbociclib] (partner 0.5 µM)
# In short: (§1)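 Lung cancer cell lines were seeded in 1536-well plates and dosed by pin tool the next day, with either a single drug or a fixed anchor-drug dose combined with five library-drug doses (not always all listed) spaced in √10 steps. Five days later, one step fixed the cells and stained their nuclei (final 0.05% Triton X-100, 1% formaldehyde, 1 ug/ml Hoechst), and nuclei were counted on 4× images. Relative viability is the nuclei count in treated wells divided by the count in vehicle wells, and each value is the median of duplicate plates.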
# [2] = compound: CN[C@@H]1C[C@H]2O[C@@](C)([C@@H]1OC)n1c3ccccc3c3c4c(c5c6ccccc6n2c5c31)C(=O)NC4 [Staurosporine] + O=C(c1cc(Cc2n[nH]c(=O)c3ccccc23)ccc1F)N1CCN(C(=O)C2CC2)CC1 [Olaparib] (partner 8 µM)
# In short: as §1
# [3] = compound: CN[C@@H]1C[C@H]2O[C@@](C)([C@@H]1OC)n1c3ccccc3c3c4c(c5c6ccccc6n2c5c31)C(=O)NC4 [Staurosporine] + CS(=O)(=O)CCNCc1ccc(-c2ccc3ncnc(Nc4ccc(OCc5cccc(F)c5)c(Cl)c4)c3c2)o1 [Lapatinib] (partner 2 µM)
# In short: as §1
# [4] = compound: CC1=C(CC(=O)O)c2cc(F)ccc2/C1=C\c1ccc([S+](C)[O-])cc1 [Sulindac] + CS(=O)(=O)N1CCN(Cc2cc3nc(-c4cccc5[nH]ncc45)nc(N4CCOCC4)c3s2)CC1 [Pictilisib] (partner 1 µM)
# In short: as §1
Cell Line,relative viability ([1]; first compound 0.08 µM),relative viability ([1]; first compound 0.253 µM),relative viability ([1]; first compound 0.8 µM),relative viability ([1]; first compound 2.53 µM),relative viability ([1]; first compound 8 µM),relative viability ([2]; first compound 0.005 µM),relative viability ([2]; first compound 0.05 µM),relative viability ([2]; first compound 0.1581 µM),relative viability ([2]; first compound 0.5 µM),relative viability ([3]; first compound 0.005 µM),relative viability ([3]; first compound 0.05 µM),relative viability ([3]; first compound 0.1581 µM),relative viability ([3]; first compound 0.5 µM),relative viability ([4]; first compound 0.08 µM),relative viability ([4]; first compound 0.253 µM),relative viability ([4]; first compound 0.8 µM),relative viability ([4]; first compound 2.53 µM),relative viability ([4]; first compound 8 µM),relative viability ([2]; first compound 0.01581 µM),relative viability ([3]; first compound 0.01581 µM)
HCC-44,0.982,1.06,0.924,0.96,0.966,1.04,0.75,0.456,0.351,0.956,0.208,0.0947,0.0895,0.403,0.562,0.537,0.687,0.589,,
COR-L23,0.325,0.268,0.233,0.275,0.334,0.216,0.164,0.141,0.0662,0.695,0.241,0.0931,0.0662,0.987,0.933,,0.727,1.07,0.189,0.31
EMC-BAC-2,0.532,0.512,0.482,0.505,0.566,0.245,0.172,0.177,0.19,0.427,0.178,0.188,0.167,0.524,0.58,0.485,0.542,0.596,0.162,0.498
LK-2,0.879,0.624,0.496,0.369,0.88,,0.518,0.289,0.0843,1.31,,0.346,0.178,0.551,0.675,,,0.558,0.432,0.924
NCI-H460,0.199,0.176,0.147,0.239,0.148,0.27,0.159,0.0506,0.0242,1.08,0.455,0.0071,0.0093,0.366,0.359,0.219,0.381,0.394,0.134,0.389
NCI-H3122,0.161,0.183,0.218,0.204,0.205,0.575,0.481,,0.281,1.01,0.988,0.665,0.685,0.675,0.602,0.592,0.627,0.621,,0.318
NCI-H2126,0.344,0.333,0.395,0.372,0.361,0.89,0.62,0.468,0.4,0.805,0.505,0.336,0.356,0.46,0.498,0.462,0.497,0.479,0.634,0.571
LOU-NH91,0.473,0.535,0.536,0.521,0.571,0.816,0.572,0.344,0.246,0.861,0.539,0.275,0.292,0.584,0.514,0.536,0.512,0.574,0.577,0.582
NCI-H1651,0.493,0.471,0.483,0.554,0.578,0.153,0.168,0.15,0.126,0.708,0.356,0.107,0.0625,0.751,0.672,0.416,0.621,0.599,0.159,0.413
NCI-H520,0.231,0.239,0.221,0.244,0.278,0.347,0.211,0.138,0.139,0.935,0.514,0.178,0.13,0.336,0.3,0.235,0.251,0.366,0.302,0.595
